Assay results reported in ChEMBL document CHEMBL1129902, “Bioactivatable derivatives of 8-substituted cAMP-analogues” (Bioorg Med Chem Lett, 1997).

Columns and labels:
[1] = target: cAMP-dependent protein kinase (PKA) (Homo sapiens, UniProt P22694+P17612+P22612); experiment: Activation of cAMP dependent protein kinase (PKA); format: functional
[2] = Lipophilicity relative to cAMP (log Kw=1); format: physicochemical

Nc1ncnc2c1nc(Sc1ccc(Cl)cc1)n2[C@@H]1O[C@@H]2COP(=O)(O)O[C@H]2[C@H]1O
EC50 [1]: 20 µM

CC(=O)OCOP1(=O)OC[C@@H]2O[C@@H](n3c(NCCO)nc4c(N)ncnc43)[C@H](O)[C@@H]2O1 (some centres not stated)
Log Kw [2]: > 2

CC(=O)OCOP1(=O)OC[C@@H]2O[C@@H](n3c(Br)nc4c(N)ncnc43)[C@H](O)[C@@H]2O1 (some centres not stated)
Log Kw [2]: > 2

CC(=O)OCOP1(=O)OC[C@@H]2O[C@@H](n3c(N4CCCCC4)nc4c(N)ncnc43)[C@H](O)[C@@H]2O1 (some centres not stated)
Log Kw [2]: > 3.5
EC50 [1]: 10 µM

CC(=O)OCOP1(=O)OC[C@@H]2O[C@@H](n3c(Sc4ccc(Cl)cc4)nc4c(N)ncnc43)[C@H](O)[C@@H]2O1 (some centres not stated)
Log Kw [2]: > 4
EC50 [1]: 0.15 µM
